From patent US8044069B2, “Compounds as calcium channel blockers” (Abbott Laboratories, priority 2008, dated 2011)

The compounds below were run against human Cav2.2 (Homo sapiens, UniProt Q00975) (assay: Assessment of calcium channel activity using FLIPR (Ca2+ influx in IMR32 cells)). Details: IMR32 cells endogenously expressing human Cav2.2; 60 minute pre-incubation; 2 μM nifedipine; depolarized with 80 mM KCl, 5 mM CaCl2.
Type: cell-based
Method in brief: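 FLIPR measured Ca2+ influx triggered by 80 mM KCl depolarization together with a step to 5 mM external CaCl2. Percent inhibition relative to uninhibited activity was fitted sigmoidally for IC50.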

human Cav2.2, sequence (Q00975 whole entry): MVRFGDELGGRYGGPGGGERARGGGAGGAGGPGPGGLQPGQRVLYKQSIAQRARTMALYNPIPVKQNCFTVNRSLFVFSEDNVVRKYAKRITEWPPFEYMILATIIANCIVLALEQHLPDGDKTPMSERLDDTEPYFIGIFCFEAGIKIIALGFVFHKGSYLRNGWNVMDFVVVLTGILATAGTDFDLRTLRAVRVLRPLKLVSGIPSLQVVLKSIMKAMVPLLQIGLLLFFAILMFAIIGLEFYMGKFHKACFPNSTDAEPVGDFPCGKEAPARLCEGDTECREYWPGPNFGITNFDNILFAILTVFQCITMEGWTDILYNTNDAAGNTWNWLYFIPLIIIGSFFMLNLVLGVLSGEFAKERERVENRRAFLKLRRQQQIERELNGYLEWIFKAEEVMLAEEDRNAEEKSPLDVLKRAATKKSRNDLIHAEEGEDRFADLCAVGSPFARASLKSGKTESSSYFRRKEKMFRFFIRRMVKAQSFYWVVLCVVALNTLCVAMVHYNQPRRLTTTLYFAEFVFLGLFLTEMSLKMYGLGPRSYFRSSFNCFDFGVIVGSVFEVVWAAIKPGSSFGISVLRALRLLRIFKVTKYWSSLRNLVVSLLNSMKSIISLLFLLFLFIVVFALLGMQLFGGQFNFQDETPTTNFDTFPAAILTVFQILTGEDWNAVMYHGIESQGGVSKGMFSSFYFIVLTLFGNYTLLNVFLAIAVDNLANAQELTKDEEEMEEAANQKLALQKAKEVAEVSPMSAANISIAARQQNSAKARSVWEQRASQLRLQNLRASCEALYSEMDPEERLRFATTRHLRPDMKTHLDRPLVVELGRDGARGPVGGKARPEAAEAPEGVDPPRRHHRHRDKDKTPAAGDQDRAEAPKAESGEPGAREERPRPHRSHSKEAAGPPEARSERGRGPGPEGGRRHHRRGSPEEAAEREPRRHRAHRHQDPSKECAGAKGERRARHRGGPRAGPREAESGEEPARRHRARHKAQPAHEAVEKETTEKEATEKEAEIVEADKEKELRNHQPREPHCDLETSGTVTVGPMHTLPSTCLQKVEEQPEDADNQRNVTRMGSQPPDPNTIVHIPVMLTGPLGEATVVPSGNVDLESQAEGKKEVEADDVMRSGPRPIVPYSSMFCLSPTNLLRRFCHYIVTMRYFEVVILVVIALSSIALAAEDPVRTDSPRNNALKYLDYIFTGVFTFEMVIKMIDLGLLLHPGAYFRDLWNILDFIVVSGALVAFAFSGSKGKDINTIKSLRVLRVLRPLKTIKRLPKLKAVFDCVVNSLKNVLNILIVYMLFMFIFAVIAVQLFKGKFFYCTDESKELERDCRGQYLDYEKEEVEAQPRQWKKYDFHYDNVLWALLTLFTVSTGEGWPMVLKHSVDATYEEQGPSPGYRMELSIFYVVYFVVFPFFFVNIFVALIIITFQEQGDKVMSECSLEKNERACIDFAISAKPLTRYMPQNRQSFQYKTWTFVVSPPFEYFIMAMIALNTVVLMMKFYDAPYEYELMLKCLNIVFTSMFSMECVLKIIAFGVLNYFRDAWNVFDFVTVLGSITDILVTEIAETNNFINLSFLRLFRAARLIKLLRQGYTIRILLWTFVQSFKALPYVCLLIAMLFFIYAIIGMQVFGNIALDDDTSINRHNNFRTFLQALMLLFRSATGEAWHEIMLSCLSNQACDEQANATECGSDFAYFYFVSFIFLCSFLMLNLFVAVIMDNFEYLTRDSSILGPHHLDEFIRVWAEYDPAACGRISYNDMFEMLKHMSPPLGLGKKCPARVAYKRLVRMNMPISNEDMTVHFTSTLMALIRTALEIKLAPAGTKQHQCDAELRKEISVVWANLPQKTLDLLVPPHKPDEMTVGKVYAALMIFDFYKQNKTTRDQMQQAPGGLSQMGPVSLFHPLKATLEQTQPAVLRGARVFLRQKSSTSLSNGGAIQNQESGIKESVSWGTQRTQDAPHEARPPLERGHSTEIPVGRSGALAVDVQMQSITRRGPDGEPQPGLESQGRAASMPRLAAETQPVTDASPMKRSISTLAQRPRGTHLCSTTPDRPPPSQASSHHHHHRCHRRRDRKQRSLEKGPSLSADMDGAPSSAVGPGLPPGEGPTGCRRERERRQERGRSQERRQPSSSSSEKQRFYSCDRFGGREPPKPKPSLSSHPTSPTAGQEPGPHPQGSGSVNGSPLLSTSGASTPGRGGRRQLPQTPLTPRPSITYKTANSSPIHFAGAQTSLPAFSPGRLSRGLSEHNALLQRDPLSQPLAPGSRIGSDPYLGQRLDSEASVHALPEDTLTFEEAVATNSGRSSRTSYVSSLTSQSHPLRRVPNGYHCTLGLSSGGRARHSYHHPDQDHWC
human Cav2.2, sequence (P54289 25-951 partner limits assumed): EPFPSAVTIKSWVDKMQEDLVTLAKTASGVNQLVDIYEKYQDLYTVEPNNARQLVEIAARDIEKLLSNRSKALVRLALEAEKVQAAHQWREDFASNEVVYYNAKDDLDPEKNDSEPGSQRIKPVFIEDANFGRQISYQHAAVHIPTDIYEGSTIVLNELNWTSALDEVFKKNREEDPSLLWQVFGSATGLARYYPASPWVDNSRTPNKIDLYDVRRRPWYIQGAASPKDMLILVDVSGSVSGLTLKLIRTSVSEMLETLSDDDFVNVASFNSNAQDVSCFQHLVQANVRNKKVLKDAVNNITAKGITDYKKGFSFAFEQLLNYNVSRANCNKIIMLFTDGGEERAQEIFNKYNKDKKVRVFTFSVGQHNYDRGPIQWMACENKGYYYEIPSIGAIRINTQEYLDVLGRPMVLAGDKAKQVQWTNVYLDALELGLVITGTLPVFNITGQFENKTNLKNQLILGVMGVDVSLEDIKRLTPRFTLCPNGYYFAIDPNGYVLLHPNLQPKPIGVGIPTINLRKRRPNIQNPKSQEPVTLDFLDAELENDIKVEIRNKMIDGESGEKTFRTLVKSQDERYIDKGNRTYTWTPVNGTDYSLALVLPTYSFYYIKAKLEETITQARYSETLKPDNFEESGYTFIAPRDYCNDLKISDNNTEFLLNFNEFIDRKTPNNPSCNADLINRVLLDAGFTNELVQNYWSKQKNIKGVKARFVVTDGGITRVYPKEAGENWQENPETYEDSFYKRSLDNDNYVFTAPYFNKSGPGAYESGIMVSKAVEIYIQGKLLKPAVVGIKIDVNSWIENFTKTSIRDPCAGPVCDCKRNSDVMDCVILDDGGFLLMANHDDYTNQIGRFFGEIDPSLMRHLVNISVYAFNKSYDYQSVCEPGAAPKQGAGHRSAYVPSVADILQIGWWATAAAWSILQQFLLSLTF
human Cav2.2, sequence (P54289 952-1103 partner limits assumed): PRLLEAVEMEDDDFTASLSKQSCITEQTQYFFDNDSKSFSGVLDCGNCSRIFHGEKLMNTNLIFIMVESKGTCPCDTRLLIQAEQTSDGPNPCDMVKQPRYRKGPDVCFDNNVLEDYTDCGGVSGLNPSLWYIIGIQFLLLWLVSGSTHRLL
human Cav2.2, sequence (P54284 whole entry partner): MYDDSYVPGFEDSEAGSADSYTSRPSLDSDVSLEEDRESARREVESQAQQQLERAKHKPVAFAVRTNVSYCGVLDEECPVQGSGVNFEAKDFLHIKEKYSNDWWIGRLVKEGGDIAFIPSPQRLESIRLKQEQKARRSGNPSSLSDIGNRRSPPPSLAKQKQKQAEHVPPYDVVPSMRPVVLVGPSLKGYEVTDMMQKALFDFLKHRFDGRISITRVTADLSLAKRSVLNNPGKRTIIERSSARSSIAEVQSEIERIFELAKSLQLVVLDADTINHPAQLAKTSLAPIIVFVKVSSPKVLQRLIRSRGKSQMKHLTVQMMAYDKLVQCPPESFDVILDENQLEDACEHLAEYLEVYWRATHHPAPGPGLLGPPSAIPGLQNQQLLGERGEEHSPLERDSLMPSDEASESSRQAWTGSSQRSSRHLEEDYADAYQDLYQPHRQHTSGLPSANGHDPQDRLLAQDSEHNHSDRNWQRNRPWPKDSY

SMILES	IC50
O=C(CN1CCCC(c2ccccc2)(c2ccccc2)C1=O)N1CCC(O)(c2ccc(Cl)c(C(F)(F)F)c2)CC1 [Example 250, 1-(2-{4-[4-chloro-3-(trifluoromethyl)phenyl]-4-hydroxypiperidin-1-yl}-2-oxoethyl)-3,3-diphenylpiperidin-2-one]	4.13 µM
N#Cc1ccc(NC(=O)CN2CCC(c3ccccc3)(c3ccccc3)C2=O)nc1 [Example 251, N-(5-cyanopyridin-2-yl)-2-(2-oxo-3,3-diphenylpyrrolidin-1-yl)acetamide]	8.32 µM
N#Cc1ccc(NC(=O)CN2CCC(c3ccc(F)cc3)(c3ccc(F)cc3)C2=O)nc1 [Example 252, 2-[3,3-bis(4-fluorophenyl)-2-oxopyrrolidin-1-yl]-N-(5-cyanopyridin-2-yl)acetamide]	2.97 µM
O=C(CN1CCC(c2ccc(F)cc2)C1=O)N1CCc2ccccc2C1 (stereo not drawn) [Example 253, 1-[2-(3,4-dihydroisoquinolin-2(1H)-yl)-2-oxoethyl]-3-(4-fluorophenyl)pyrrolidin-2-one]	10.6 µM
O=C(CN1CCC(c2ccc(F)cc2)C1=O)N1CCc2ccc(C(F)(F)F)cc2C1 (stereo not drawn) [Example 254, 3-(4-fluorophenyl)-1-{2-oxo-2-[7-(trifluoromethyl)-3,4-dihydroisoquinolin-2(1H)-yl]ethyl}pyrrolidin-2-one]	4.32 µM
O=C(CN1CCC(c2ccc(F)cc2)C1=O)N1CCc2ccc(F)cc2C1 (stereo not drawn) [Example 255, 1-[2-(7-fluoro-3,4-dihydroisoquinolin-2(1H)-yl)-2-oxoethyl]-3-(4-fluorophenyl)pyrrolidin-2-one]	9.89 µM
O=C(CN1CCC(c2ccc(F)cc2)C1=O)N1CCc2ccc(Cl)cc2C1 (stereo not drawn) [Example 256, 1-[2-(7-chloro-3,4-dihydroisoquinolin-2(1H)-yl)-2-oxoethyl]-3-(4-fluorophenyl)pyrrolidin-2-one]	7.51 µM
O=C(CN1CCC(c2ccc(F)cc2)C1=O)N1CCc2cc(Cl)ccc2C1 (stereo not drawn) [Example 257, 1-[2-(6-chloro-3,4-dihydroisoquinolin-2(1H)-yl)-2-oxoethyl]-3-(4-fluorophenyl)pyrrolidin-2-one]	6.16 µM
O=C(CN1CCC(c2ccc(F)cc2)(c2ccc(F)cc2)C1=O)N1CCc2ccccc2C1 [Example 258, 1-[2-(3,4-dihydroisoquinolin-2(1H)-yl)-2-oxoethyl]-3,3-bis(4-fluorophenyl)pyrrolidin-2-one]	4.45 µM
O=C(CN1CCC(c2ccc(F)cc2)(c2ccc(F)cc2)C1=O)N1CCc2ccc(C(F)(F)F)cc2C1 [Example 259, 3,3-bis(4-fluorophenyl)-1-{2-oxo-2-[7-(trifluoromethyl)-3,4-dihydroisoquinolin-2(1H)-yl]ethyl}pyrrolidin-2-one]	2.55 µM
O=C(CN1CCCC(c2ccccc2)(c2ccccc2)C1=O)N1CCc2ccccc2C1 [Example 260, 1-[2-(3,4-dihydroisoquinolin-2(1H)-yl)-2-oxoethyl]-3,3-diphenylpiperidin-2-one]	7.12 µM
O=C(CN1CCCC(c2ccccc2)(c2ccccc2)C1=O)N1CCc2ccc(C(F)(F)F)cc2C1 [Example 261, 1-{2-oxo-2-[7-(trifluoromethyl)-3,4-dihydroisoquinolin-2(1H)-yl]ethyl}-3,3-diphenylpiperidin-2-one]	4.44 µM
O=C1N(Cc2nc(CCc3ccccc3Cl)no2)CCCC1(c1ccccc1)c1ccccc1 [Example 262, 1-({3-[2-(2-chlorophenyl)ethyl]-1,2,4-oxadiazol-5-yl}methyl)-3,3-diphenylpiperidin-2-one]	3.39 µM
O=C1N(Cc2nc(COc3ccc(Cl)cc3)no2)CCCC1(c1ccccc1)c1ccccc1 [Example 263, 1-({3-[(4-chlorophenoxy)methyl]-1,2,4-oxadiazol-5-yl}methyl)-3,3-diphenylpiperidin-2-one]	3.49 µM
O=C(CN1CCC(c2ccc(C(F)(F)F)cc2)C1=O)N1Cc2ccc(F)cc2C1 (stereo not drawn) [Example 266, 1-[2-(5-fluoro-1,3-dihydro-2H-isoindol-2-yl)-2-oxoethyl]-3-[4-(trifluoromethyl)phenyl]pyrrolidin-2-one]	10.1 µM
